The results in this text go back to the supplement of paper PMC6045584.

Compound in one assay: CCN(CC)CCNC(=O)c1c(C)[nH]c(/C=C2\C(=O)Nc3ccc(F)cc32)c1C [SUNITINIB]
Kind of assay: surviving fraction relative to DMSO-only wells; higher = less growth inhibition. Particulars: exposure time: 5 days. The procedure, abridged:
(§1)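 Viability values are CellTiter-Glo luminescence readings, given as surviving fraction against the median of DMSO-only wells. The readings were taken after 10 minutes at room temperature, following five days of continuous exposure to inhibitors at 0.5, 1, 5, 10, 50, 100, 500 and 1000 nM that began 24 hours after log-phase tumour cell lines were seeded at 250–500 cells per well in 384-well plates. Every line was screened three times and kept only if replicate Pearson r >0.7 and median Z' >0.3.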

Compound in another assay: CN(Cc1cnc2nc(N)nc(N)c2n1)c1ccc(C(=O)N[C@@H](CCC(=O)O)C(=O)O)cc1 [METHOTREXATE]
Described as above. Particulars: exposure time: 5 days. The method in brief:
as §1

± gives the standard deviation of the averaged measurements.

G292 BONE: the surviving fraction with SUNITINIB (0.5 nM) was 0.903 ± 0.05; with SUNITINIB (1 nM) it was 0.947 ± 0.037; with SUNITINIB (5 nM), 0.938 ± 0.048; with SUNITINIB (10 nM) it was 0.904 ± 0.027; in the assay with SUNITINIB (50 nM) it was 0.909 ± 0.032; with SUNITINIB (100 nM), 0.887 ± 0.061. For the same test system, the surviving fraction is 0.553 ± 0.014 with SUNITINIB (500 nM); 0.306 ± 0.0087 with SUNITINIB (1000 nM); 1.01 ± 0.048 with METHOTREXATE (0.5 nM); 1.07 ± 0.032 in the assay with METHOTREXATE (1 nM); 1.04 ± 0.069 with METHOTREXATE (5 nM); 1.06 ± 0.042 with METHOTREXATE (10 nM). Besides, the surviving fraction came to 1.02 ± 0.042 in the assay with METHOTREXATE (50 nM), 1.04 ± 0.029 in the assay with METHOTREXATE (100 nM), 1.017 ± 0.0058 in the assay with METHOTREXATE (500 nM) and 1.01 ± 0.024 with METHOTREXATE (1000 nM).
Regarding LNCAP PROSTATE, the surviving fraction with SUNITINIB (0.5 nM) was 1.12 ± 0.06; with SUNITINIB (1 nM), 1.19 ± 0.081; with SUNITINIB (10 nM), 1.01 ± 0.12; with SUNITINIB (50 nM), 1.08 ± 0.093; with SUNITINIB (100 nM) it was 1.14 ± 0.037; with SUNITINIB (500 nM) it was 0.854 ± 0.11. Also, the surviving fraction in the assay with SUNITINIB (1000 nM) was found to be 0.45 ± 0.033; in the assay with METHOTREXATE (0.5 nM) it was 0.965 ± 0.021; with METHOTREXATE (1 nM) it was 0.957 ± 0.042; in the assay with METHOTREXATE (5 nM) it was 0.961 ± 0.059; with METHOTREXATE (10 nM), 0.851 ± 0.061; with METHOTREXATE (50 nM) it was 0.575 ± 0.011. The surviving fraction with METHOTREXATE (100 nM) worked out at 0.5 ± 0.024; with METHOTREXATE (500 nM) it was 0.428 ± 0.018; with METHOTREXATE (1000 nM) it was 0.422 ± 0.032.
As to SCC003 HEADNECK, the surviving fraction amounted to 0.834 ± 0.071 in the assay with SUNITINIB (0.5 nM); 0.807 ± 0.064 with SUNITINIB (1 nM); 0.851 ± 0.036 with SUNITINIB (5 nM); 0.784 ± 0.058 with SUNITINIB (10 nM); 0.97 ± 0.07 with SUNITINIB (50 nM); 0.919 ± 0.017 with SUNITINIB (100 nM). The surviving fraction came to 0.495 ± 0.02 with SUNITINIB (500 nM); 0.265 ± 0.034 in the assay with SUNITINIB (1000 nM); 1.09 ± 0.11 in the assay with METHOTREXATE (0.5 nM); 1.1 ± 0.033 with METHOTREXATE (1 nM); 1.16 ± 0.03 in the assay with METHOTREXATE (5 nM); 0.87 ± 0.052 with METHOTREXATE (10 nM). Moreover, the surviving fraction worked out at 0.594 ± 0.021 in the assay with METHOTREXATE (50 nM), 0.541 ± 0.026 in the assay with METHOTREXATE (100 nM), 0.549 ± 0.042 in the assay with METHOTREXATE (500 nM) and 0.509 ± 0.037 in the assay with METHOTREXATE (1000 nM).
In the case of HUO3N1 BONE, the surviving fraction in the assay with SUNITINIB (0.5 nM) amounted to 0.907 ± 0.082; with SUNITINIB (1 nM), 0.88 ± 0.056; with SUNITINIB (5 nM), 0.8743 ± 0.0058; with SUNITINIB (10 nM), 0.82 ± 0.034; in the assay with SUNITINIB (50 nM), 0.817 ± 0.035; in the assay with SUNITINIB (100 nM), 0.801 ± 0.036. In addition, the surviving fraction in the assay with SUNITINIB (500 nM) is 0.64 ± 0.0053; with SUNITINIB (1000 nM) it was 0.379 ± 0.016; with METHOTREXATE (0.5 nM), 1.05 ± 0.032; with METHOTREXATE (1 nM) it was 1.04 ± 0.059; with METHOTREXATE (5 nM), 1.084 ± 0.008; in the assay with METHOTREXATE (10 nM) it was 1.08 ± 0.016. Besides, the surviving fraction with METHOTREXATE (50 nM) came to 0.991 ± 0.041; with METHOTREXATE (100 nM), 0.731 ± 0.029; with METHOTREXATE (500 nM) it was 0.51 ± 0.035; in the assay with METHOTREXATE (1000 nM) it was 0.51 ± 0.046.
For C33A CERVIX, the surviving fraction in the assay with SUNITINIB (0.5 nM) came out at 1.1 ± 0.13; with SUNITINIB (5 nM) it was 1.18 ± 0.12; with SUNITINIB (50 nM), 1.12 ± 0.049; in the assay with SUNITINIB (100 nM), 1.22 ± 0.1; in the assay with SUNITINIB (500 nM), 0.647 ± 0.081; with SUNITINIB (1000 nM), 0.339 ± 0.019. The surviving fraction is 1.01 ± 0.15 in the assay with METHOTREXATE (0.5 nM); 0.936 ± 0.025 with METHOTREXATE (1 nM); 0.987 ± 0.11 with METHOTREXATE (5 nM); 0.519 ± 0.048 in the assay with METHOTREXATE (10 nM); 0.592 ± 0.075 with METHOTREXATE (50 nM); 0.585 ± 0.05 with METHOTREXATE (100 nM). Moreover, the surviving fraction was determined as 0.566 ± 0.034 in the assay with METHOTREXATE (500 nM) and 0.557 ± 0.034 with METHOTREXATE (1000 nM).
For HCC1395 BREAST, the surviving fraction in the assay with SUNITINIB (0.5 nM) was found to be 0.977 ± 0.037; in the assay with SUNITINIB (1 nM), 0.829 ± 0.066; with SUNITINIB (5 nM), 0.9396 ± 0.0017; in the assay with SUNITINIB (10 nM), 0.969 ± 0.094; with SUNITINIB (50 nM), 1.09 ± 0.11; with SUNITINIB (100 nM), 1.06 ± 0.17. In addition, the surviving fraction was 0.971 ± 0.046 in the assay with SUNITINIB (500 nM); 1.01 ± 0.12 in the assay with SUNITINIB (1000 nM); 1.18 ± 0.047 with METHOTREXATE (0.5 nM); 1.08 ± 0.073 in the assay with METHOTREXATE (1 nM); 1.17 ± 0.035 with METHOTREXATE (5 nM); 1.17 ± 0.1 with METHOTREXATE (10 nM). In addition, the surviving fraction worked out at 1.12 ± 0.058 with METHOTREXATE (50 nM), 1.26 ± 0.026 with METHOTREXATE (100 nM), 1.03 ± 0.16 in the assay with METHOTREXATE (500 nM) and 1.09 ± 0.062 in the assay with METHOTREXATE (1000 nM).
Regarding CAL72 BONE, the surviving fraction in the assay with SUNITINIB (0.5 nM) is 0.977 ± 0.016; with SUNITINIB (1 nM), 0.995 ± 0.028; with SUNITINIB (100 nM) it was 1.058 ± 0.0023; in the assay with SUNITINIB (500 nM), 0.92 ± 0.0072; with SUNITINIB (1000 nM), 0.663 ± 0.044; in the assay with METHOTREXATE (0.5 nM) it was 1.04 ± 0.15. Moreover, the surviving fraction in the assay with METHOTREXATE (1 nM) amounted to 1.02 ± 0.13; with METHOTREXATE (5 nM) it was 1.03 ± 0.13; with METHOTREXATE (10 nM) it was 1.04 ± 0.11; with METHOTREXATE (50 nM) it was 0.641 ± 0.051; with METHOTREXATE (100 nM), 0.323 ± 0.061; in the assay with METHOTREXATE (500 nM), 0.301 ± 0.054. Moreover, the surviving fraction with METHOTREXATE (1000 nM) worked out at 0.303 ± 0.068.
